The record followed here is PubChem BioAssay (NCI).

Among the test systems are NCI-H23 lung; HCT-116 colon; UACC-62 melanoma; SK-MEL-2 melanoma; CCRF-CEM leukemia; ACHN renal; NCI-H460 lung; IGROV1 ovarian; NCI-H522 lung; SF-268 CNS.
What all share (assay): NCI-60 cell line screen, 48 h

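Cells were grown in 96-well plates and exposed to each compound for 48 hours at five concentrations; endpoints were interpolated linearly between bracketing concentrations, or set to the highest concentration if not reached. GI50 is the concentration that inhibits growth by half. TGI: concentration producing complete growth inhibition.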

Take `CCCc1n(Cc2ccc3ccccc3n2)cc[n+]1Cc1ccc2ccccc2n1`: the GI50 in the test with NCI-H23 lung was 0.819 µM; with HCT-116 colon, 2.81 µM; with UACC-62 melanoma, 1.12 µM; in the test on SK-MEL-2 melanoma, 1.52 µM; in the test with CCRF-CEM leukemia, 2.72 µM; in the test with ACHN renal, 33.4 µM. Also, the GI50 in the test on NCI-H460 lung is 2.44 µM; in the test on IGROV1 ovarian, 1.48 µM; in the test with NCI-H522 lung it was 0.438 µM; in the test on SF-268 CNS, 2.3 µM. Moreover, the TGI in the test with NCI-H23 lung was 14.2 µM; with HCT-116 colon, 13.1 µM; in the test with UACC-62 melanoma, 6.19 µM; with SK-MEL-2 melanoma, 5.68 µM; with CCRF-CEM leukemia, 28.3 µM; with ACHN renal it was greater than 100 µM. In addition, the TGI in the test on NCI-H460 lung was found to be 11.5 µM; with IGROV1 ovarian, 15.1 µM; with NCI-H522 lung, 5.07 µM; with SF-268 CNS it was 14.2 µM.

Turning to `CNCCNc1nc2ccccc2c2c(=O)c3cccc(C)c3sc12`, the GI50 in the test on NCI-H23 lung is 5.13 µM; in the test on HCT-116 colon, 0.818 µM; with UACC-62 melanoma it was 1.15 µM; in the test on SK-MEL-2 melanoma, 1.28 µM; in the test on CCRF-CEM leukemia, 1.28 µM; in the test with ACHN renal, 1.7 µM. Besides, the GI50 in the test on NCI-H460 lung was 0.917 µM; with IGROV1 ovarian it was 1.29 µM; in the test with NCI-H522 lung, 1.3 µM; in the test on SF-268 CNS it was 3.53 µM. In addition, the TGI in the test with NCI-H23 lung is 11.7 µM; in the test with HCT-116 colon it was 1.57 µM; in the test on UACC-62 melanoma, 3.39 µM; with SK-MEL-2 melanoma, 3.36 µM; in the test with CCRF-CEM leukemia, 3.85 µM; in the test on ACHN renal it was 7.11 µM. For the same molecule, the TGI in the test on NCI-H460 lung was 2.05 µM; with IGROV1 ovarian it was 8.06 µM; in the test with NCI-H522 lung it was 4.42 µM; in the test on SF-268 CNS, 11.4 µM.

`CCCCCCSc1nc(COC(=O)NC)c(COC(=O)NC)n1C`: the TGI in the test with NCI-H23 lung, in the test with HCT-116 colon, with UACC-62 melanoma, in the test with SK-MEL-2 melanoma, with CCRF-CEM leukemia and with ACHN renal was greater than 100 µM in each case. Besides, the TGI in the test with NCI-H460 lung, in the test with IGROV1 ovarian, in the test with NCI-H522 lung and in the test on SF-268 CNS was greater than 100 µM throughout.

On to `Cn1cc(C2=C(c3c(S(C)=O)n(C)c4ccccc34)C(=O)NC2=O)c2ccccc21` (stereo not given), for which the GI50 in the test on NCI-H23 lung was 9.79 µM; in the test with HCT-116 colon, 8.57 µM; in the test on UACC-62 melanoma, 14.2 µM; with SK-MEL-2 melanoma, 7.88 µM; with CCRF-CEM leukemia it was 7.19 µM; in the test with ACHN renal, 8.83 µM. Besides, the GI50 was 5.83 µM in the test on NCI-H460 lung, 10.8 µM in the test on IGROV1 ovarian, 4.47 µM in the test on NCI-H522 lung and 11.7 µM in the test with SF-268 CNS. Also, the TGI in the test with NCI-H23 lung, in the test with HCT-116 colon, in the test with UACC-62 melanoma, with SK-MEL-2 melanoma, with CCRF-CEM leukemia and in the test with ACHN renal was greater than 25 µM each time. Also, the TGI was greater than 25 µM in the test with NCI-H460 lung, greater than 25 µM with IGROV1 ovarian, greater than 23.4 µM with NCI-H522 lung and greater than 25 µM with SF-268 CNS.

Consider `CC1COCCN1CC#CCOC(=O)c1cc2ccccc2oc1=O` (stereo not given), for which the GI50 in the test with NCI-H23 lung, with HCT-116 colon, in the test on UACC-62 melanoma, in the test on SK-MEL-2 melanoma, in the test with CCRF-CEM leukemia and in the test on ACHN renal was greater than 100 µM each time. Further, the GI50 in the test with NCI-H460 lung, in the test with IGROV1 ovarian, in the test on NCI-H522 lung and in the test with SF-268 CNS was greater than 100 µM throughout. Further, the TGI in the test on NCI-H23 lung, in the test on HCT-116 colon, in the test on UACC-62 melanoma, in the test with SK-MEL-2 melanoma, in the test on CCRF-CEM leukemia and in the test on ACHN renal was greater than 100 µM throughout. The TGI with NCI-H460 lung, with IGROV1 ovarian, with NCI-H522 lung and with SF-268 CNS was greater than 100 µM throughout.
